Among the data in patent publication US7067532B2, “Substituted quinolines as antitumor agents” (AstraZeneca, priority 2000, dated 2006) are IC50 values, retold here.

This test deals with HT29 human colon tumour cells. The experiment in a line: Cell proliferation assays. It counts as cell-based. As to conditions: HT-29, 72 hours. The method, then: Cell Proliferation Assays Cells were seeded into multi-well plates at 20000–40000 cells/ml in growth medium containing 5% FCS and incubated overnight at 37° C. The compounds were prepared in fresh medium at an appropriate concentration and added to the wells containing the cells. These were then incubated for a further 72 hours. Cells were then either removed from the wells by incubating with trypsin/EDTA and counted using a Coulter counter, or treated with XTT/PMS in PBSA and optical densities read at 450 nm.

Broadly, the IC50 is the concentration needed to halve the response being measured. `CNC(=O)COc1ccccc1Oc1ccc(Nc2c(C#N)cnc3cc(NCCCN4CCOCC4)c(OC)cc23)cc1` [Compound 11] yielded an IC50 of 1300 nM.
